# Assay results taken from PubChem BioAssay (NCI).
#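 Five compound concentrations were applied to cells in 96-well plates for 48 hours; endpoints were derived by simple linear interpolation of the resulting dose-response curve. GI50 marks 50% less growth. TGI is the concentration that stops growth completely.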
# System: HCT-15 colon
# Assay: NCI-60 cell line screen, 48 h
Structure (SMILES),TGI [µM],GI50 [µM]
CC(=O)Nc1ccc(-c2nnc(SCC(=O)Nc3ccc([N+](=O)[O-])cc3)o2)cc1,26,–
N.N.N.N.O=[N+]([O-])[O-].[Co+3].[N-]=[N+]=[N-].[N-]=[N+]=[N-],> 100,–
N#CC1=C(N)N(c2ccccc2)C(c2ccco2)C1(C#N)C#N (centres undefined),43.2,–
Cc1cc(=O)[nH]c(NN2C(Cl)C(=O)C2c2ccccc2O)n1 (centres undefined),> 100,–
CC(C)c1ccc(/C=C2/C=C(c3ccc4ccccc4c3)OC2=O)cc1,> 100,–
CC[C@@]1(C[C@H]2C[C@@]3(C(=O)OC)c4[nH]c5ccccc5c4CCN3C2=O)COC2(CCCCC2)O1,> 100,–
COc1ccc2c(=O)c(O)c(-c3ccc(OC)c(OC)c3)oc2c1,> 100,–
COc1ccc(C(OCC2OC(n3cc(C)c(=O)[nH]c3=O)CC2n2cc(Cn3cc(I)c(=O)[nH]c3=O)nn2)(c2ccccc2)c2ccccc2)cc1 (centres undefined),> 100,–
O=S1(=O)NC(=NCc2c[nH]c3ccccc23)N(c2ccccc2)c2ccncc21,> 100,–
CC(C)CCCCCCCCCCCCC(=O)NCC(=O)NC1C(C)OC(Nc2ncnc3c2ncn3C)C(O)C1O (centres undefined),> 100,–
COc1ccc(CNc2nc(NCc3ccc(OC)c(OC)c3)nc(NC3CCCCC3)n2)cc1,5.64,–
C=C(C1=CC(=O)C(C)(C)O1)[C@@H]1CC=C([C@@H]2CC[C@H]3[C@@]2(C)CC[C@H]2C(C)(C)C(=O)[C@H](O)C[C@]32C)[C@H](O)O1,5.16,–
CC1=CC2C(O1)C1C(=O)C=CC(=O)C1=CC2[N+](=O)[O-] (centres undefined),39.6,–
Cc1cn(C2CC(n3cc(Cn4cc(I)c(=O)[nH]c4=O)nn3)C(CO)O2)c(=O)[nH]c1=O (centres undefined),> 100,–
CNC(=O)OCC1=C(COC(=O)NC)C(C)N(c2ccc(OC)cc2)C1 (centres undefined),> 100,–
CCC12C=CCN3CCC4(C(=C(C(=O)OC)[C@@H]1O)Nc1ccccc14)C32 (some centres undefined),3.09,–
O=C1CCC(=O)N1n1c(Cc2ccccc2)n[nH]c1=O,> 100,–
O=C(O)CN(CC(=O)O)C1CCCCC1N(CC(=O)O)CC(=O)NCCN=C=S (centres undefined),> 100,–
Cc1nc(C(N)=S)sc1/C(CC(=O)C(=O)Nc1cccc2ccc(O)cc12)=N\NC(=O)c1ccncc1,> 100,–
Oc1cc2c3c(c1)c1cc4c(cc1c[n+]3CC2)OCO4,> 100,–
Cc1cn(C2CC(N(O)C(N)=O)C(CO)O2)c(=O)[nH]c1=O (centres undefined),> 100,–
O=C1CCC23CC(C=CC=C12)n1c(=O)n(-c2ccccc2)c(=O)n13 (centres undefined),> 100,–
[N-]=[N+]=Nc1cc(=O)oc2ccccc12,> 100,–
CC(=O)NC1=C(NCCC(C)C)C(=O)c2ccccc2C1=O,> 50,–
O=C(O)c1cccc2c1/C(=N/Nc1ccccc1)CC2,> 100,–
O=C(Cc1cccs1)N[C@@H]1C(=O)N2C(C(=O)OC(c3ccccc3)c3ccccc3)=C(CO)CS[C@H]12,> 100,–
O=C([O-])CC(=O)[O-].O=C([O-])CC(=O)[O-].[K+].[Pd+2],> 100,> 100
Cc1ccccc1-n1c(=O)c2ncn(CCCl)c2n(-c2ccccc2C)c1=S,> 100,–

# System: BT-549 breast
# Assay: NCI-60 cell line screen, 48 h
row,Structure (SMILES),TGI [µM]
1,O=c1[nH][nH]c(=O)n1Cc1ccccc1Cn1c(=O)[nH][nH]c1=O,> 100
2,CCNC(=S)N/N=C/c1cc([N+](=O)[O-])ccc1O,> 100
3,CCOC(=O)c1c2ccccc2n2c(N)c(C(N)=O)nnc12,89.9
4,Cc1cc(N(CCC#N)CCC#N)ccc1/C(N=Nc1ccc(Cl)cc1)=N\NC(=O)c1ccccc1,> 100
5,CCc1ccc(CCN2CCCCC2)nc1,> 100
6,CC(C)C1/C(=N/O)CC(c2ccccc2)N(N=O)C1c1ccccc1 (centres undefined),> 100
7,COC(=O)[C@H](Cc1c[nH]c2ccccc12)NP(=O)(O)OCC1C=CC(n2cc(C)c(=O)[nH]c2=O)O1 (some centres undefined),> 100
8,COc1cc(/C=C2\S/C(=N/Nc3nc(-c4ccc(Br)cc4)cs3)NC2=O)cc(OC)c1OC,33.8
9,CCCNC1=C2CC(C)CC(OC)[C@@H](O)[C@H](C)/C=C(\C)C(OC(N)=O)C(OC)/C=C\C=C(/C)C(=O)NC(=CC1=O)C2=O (some centres undefined),42.1
10,N#CC1=C(N)N(c2ccccc2)C(c2ccco2)C1(C#N)C#N (centres undefined),37.4
11,CC(C)c1ccc(/C=C2/C=C(c3ccc4ccccc4c3)OC2=O)cc1,> 100
12,CC[C@@]1(C[C@H]2C[C@@]3(C(=O)OC)c4[nH]c5ccccc5c4CCN3C2=O)COC2(CCCCC2)O1,> 100
13,COc1ccc(C(OCC2OC(n3cc(C)c(=O)[nH]c3=O)CC2n2cc(Cn3cc(I)c(=O)[nH]c3=O)nn2)(c2ccccc2)c2ccccc2)cc1 (centres undefined),> 100
14,O=S1(=O)NC(=NCc2c[nH]c3ccccc23)N(c2ccccc2)c2ccncc21,> 100
15,COc1ccc(CNc2nc(NCc3ccc(OC)c(OC)c3)nc(NC3CCCCC3)n2)cc1,> 100
16,C=C(C1=CC(=O)C(C)(C)O1)[C@@H]1CC=C([C@@H]2CC[C@H]3[C@@]2(C)CC[C@H]2C(C)(C)C(=O)[C@H](O)C[C@]32C)[C@H](O)O1,21.6
17,CC1=CC2C(O1)C1C(=O)C=CC(=O)C1=CC2[N+](=O)[O-] (centres undefined),29.6
18,Cc1cn(C2CC(n3cc(Cn4cc(I)c(=O)[nH]c4=O)nn3)C(CO)O2)c(=O)[nH]c1=O (centres undefined),> 100
19,CNC(=O)OCC1=C(COC(=O)NC)C(C)N(c2ccc(OC)cc2)C1 (centres undefined),> 100
20,O=C1CCC(=O)N1n1c(Cc2ccccc2)n[nH]c1=O,> 100
21,O=C(O)CN(CC(=O)O)C1CCCCC1N(CC(=O)O)CC(=O)NCCN=C=S (centres undefined),> 100
22,Cc1nc(C(N)=S)sc1/C(CC(=O)C(=O)Nc1cccc2ccc(O)cc12)=N\NC(=O)c1ccncc1,> 100
23,Oc1cc2c3c(c1)c1cc4c(cc1c[n+]3CC2)OCO4,8.1
24,Cc1ccccc1-n1c(=O)c2ncn(CCCl)c2n(-c2ccccc2C)c1=S,> 100

# System: K-562 leukemia
# Assay: NCI-60 cell line screen, 48 h
row,Structure (SMILES),TGI [µM]
1,O=c1[nH][nH]c(=O)n1Cc1ccccc1Cn1c(=O)[nH][nH]c1=O,> 100
2,CC1C=C(CCCCCCCCCCCC[C@@H](O)[C@@H]2CC[C@@H]([C@@H]3CC[C@@H](C(O)CCCCCCCCCCCCC4=C[C@H](C)OC4=O)O3)O2)C(=O)O1 (some centres undefined),> 100
3,CCNC(=S)N/N=C/c1cc([N+](=O)[O-])ccc1O,> 100
4,COc1cc([C@@H]2OCC3C(c4ccc5c(c4)OCO5)OCC32)cc(OC)c1OC (some centres undefined),> 100
5,CCOC(=O)c1c2ccccc2n2c(N)c(C(N)=O)nnc12,> 100
6,Cc1cc(N(CCC#N)CCC#N)ccc1/C(N=Nc1ccc(Cl)cc1)=N\NC(=O)c1ccccc1,> 100
7,CCc1ccc(CCN2CCCCC2)nc1,> 100
8,N#CN=C(N(Cc1ccccc1)Cc1ccccc1)N(Cc1ccccc1)Cc1ccccc1,> 100
9,CNC(=O)C(C)C1CCC2(C)C=CC(=O)C(C)=C2C1O (centres undefined),> 100
10,CC(C)C1/C(=N/O)CC(c2ccccc2)N(N=O)C1c1ccccc1 (centres undefined),> 100
11,CC1(C)N=C(/C(Cl)=[N+](/[O-])C(=O)c2ccc(F)cc2)C(C)(C)N1O,17.3
12,COC(=O)[C@H](Cc1c[nH]c2ccccc12)NP(=O)(O)OCC1C=CC(n2cc(C)c(=O)[nH]c2=O)O1 (some centres undefined),> 100
13,CCCNC1=C2CC(C)CC(OC)[C@@H](O)[C@H](C)/C=C(\C)C(OC(N)=O)C(OC)/C=C\C=C(/C)C(=O)NC(=CC1=O)C2=O (some centres undefined),> 100
14,C[n+]1c2ccccc2c(/C=N\NS(=O)(=O)c2ccc(O)c(C(=O)O)c2)c2ccccc21,> 100
15,O=C(Nc1ccc(C2=NCCN2)cc1)c1cncc(C(=O)Nc2ccc(C3=NCCN3)cc2)c1,> 100
16,CCC1(O)CC2CC(=O)OC2C1O (centres undefined),> 100
17,Cc1ccc(SCC(CSCCO)OCn2cnc3c2NC(N)=NC32OCCO2)cc1 (centres undefined),> 100
18,CC(=O)Nc1ccc(-c2nnc(SCC(=O)Nc3ccc([N+](=O)[O-])cc3)o2)cc1,> 100
19,N.N.N.N.O=[N+]([O-])[O-].[Co+3].[N-]=[N+]=[N-].[N-]=[N+]=[N-],> 100
20,N#CC1=C(N)N(c2ccccc2)C(c2ccco2)C1(C#N)C#N (centres undefined),37.5
21,Cc1cc(=O)[nH]c(NN2C(Cl)C(=O)C2c2ccccc2O)n1 (centres undefined),> 100

row,Structure (SMILES),TGI [µM]
1,CC(C)c1ccc(/C=C2/C=C(c3ccc4ccccc4c3)OC2=O)cc1,> 85.3
2,CC[C@@]1(C[C@H]2C[C@@]3(C(=O)OC)c4[nH]c5ccccc5c4CCN3C2=O)COC2(CCCCC2)O1,> 100
3,COc1ccc2c(=O)c(O)c(-c3ccc(OC)c(OC)c3)oc2c1,> 100
4,O=S1(=O)NC(=NCc2c[nH]c3ccccc23)N(c2ccccc2)c2ccncc21,> 100
5,CC(C)CCCCCCCCCCCCC(=O)NCC(=O)NC1C(C)OC(Nc2ncnc3c2ncn3C)C(O)C1O (centres undefined),> 100
6,COc1ccc(CNc2nc(NCc3ccc(OC)c(OC)c3)nc(NC3CCCCC3)n2)cc1,> 100
7,C=C(C1=CC(=O)C(C)(C)O1)[C@@H]1CC=C([C@@H]2CC[C@H]3[C@@]2(C)CC[C@H]2C(C)(C)C(=O)[C@H](O)C[C@]32C)[C@H](O)O1,8.01
8,CC1=CC2C(O1)C1C(=O)C=CC(=O)C1=CC2[N+](=O)[O-] (centres undefined),> 100
9,CNC(=O)OCC1=C(COC(=O)NC)C(C)N(c2ccc(OC)cc2)C1 (centres undefined),> 100
10,CCC12C=CCN3CCC4(C(=C(C(=O)OC)[C@@H]1O)Nc1ccccc14)C32 (some centres undefined),> 26.9
11,O=C1CCC(=O)N1n1c(Cc2ccccc2)n[nH]c1=O,> 100
12,O=C(O)CN(CC(=O)O)C1CCCCC1N(CC(=O)O)CC(=O)NCCN=C=S (centres undefined),> 100
13,Oc1cc2c3c(c1)c1cc4c(cc1c[n+]3CC2)OCO4,> 100
14,Cc1cn(C2CC(N(O)C(N)=O)C(CO)O2)c(=O)[nH]c1=O (centres undefined),> 100
15,COc1nc(N)c(C(=O)CCl)c(=O)n1C,34.3
16,O=C1CCC23CC(C=CC=C12)n1c(=O)n(-c2ccccc2)c(=O)n13 (centres undefined),> 100
17,[N-]=[N+]=Nc1cc(=O)oc2ccccc12,> 100
18,CC(=O)NC1=C(NCCC(C)C)C(=O)c2ccccc2C1=O,> 50
19,O=C(O)c1cccc2c1/C(=N/Nc1ccccc1)CC2,> 100
20,O=C(Cc1cccs1)N[C@@H]1C(=O)N2C(C(=O)OC(c3ccccc3)c3ccccc3)=C(CO)CS[C@H]12,> 100
